19 compounds from patent publication US12209072B2, “Cyclopentyl acids as LPA antagonists” (BRISTOL-MYERS SQUIBB COMPANY, priority 2018, dated 2025) can be followed below.

One may read the IC50 as the point on the concentration scale where inhibition reaches its midpoint.

This assay deals with T1, human LPA1 (Homo sapiens, UniProt Q92633).
T1 construct: expressed in transfected cells; host or cells: Chinese hamster ovary (CHO) cells
T1 sequence (Q92633 whole entry): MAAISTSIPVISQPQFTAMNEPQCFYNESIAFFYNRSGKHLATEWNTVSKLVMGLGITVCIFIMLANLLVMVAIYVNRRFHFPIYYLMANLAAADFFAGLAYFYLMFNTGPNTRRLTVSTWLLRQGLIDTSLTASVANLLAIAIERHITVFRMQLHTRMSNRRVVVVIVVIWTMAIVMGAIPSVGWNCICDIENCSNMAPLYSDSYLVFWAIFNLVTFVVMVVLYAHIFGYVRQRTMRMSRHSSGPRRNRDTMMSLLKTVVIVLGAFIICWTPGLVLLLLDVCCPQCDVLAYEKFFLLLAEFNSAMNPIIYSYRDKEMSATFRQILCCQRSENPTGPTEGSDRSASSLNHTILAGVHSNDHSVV
The assay is described as follows: LPA1 functional antagonist assay (LPA-induced calcium flux). It counts as cell-based. Particulars: CHO cells overexpressing human LPA1; inhibition of calcium flux induced by 10 nM LPA; read-out: hLPA1 IC50. The protocol:
The effectiveness of compounds of the present invention as LPA1 inhibitors can be determined in an LPA1 functional antagonist assay as follows:
Chinese hamster ovary cells overexpressing human LPA1 were plated overnight (15,000 cells/well) in poly-D-lysine coated 384-well microplates (Greiner bio-one, Cat #781946) in DMEM/F12 medium (Gibco, Cat #11039). Following overnight culture, cells were loaded with calcium indicator dye (AAT Bioquest Inc, Cat #34601) for 30 minutes at 37° C. The cells were then equilibrated to room temperature for 30 minutes before the assay. Test compounds solubilized in DMSO were transferred to 384 well non-binding surface plates (Corning, Cat #3575) using the Labcyte Echo acoustic dispense and diluted with assay buffer [1×HBSS with calcium/magnesium (Gibco Cat #14025-092), 20 mM HEPES (Gibco Cat #15630-080) and 0.1% fatty acid free BSA (Sigma Cat #A9205)] to a final concentration of 0.5% DMSO. Diluted compounds were added to the cells by FDSS6000 (Hamamatsu) at final concentrations ranging from 0.08 nM to 5 μM. and were then incubated for 20 min at room temperature at which time LPA (Avanti Polar Lipids Cat #857130C) was added at final concentrations of 10 nM to stimulate the cells. The compound IC50 value was defined as the concentration of test compound which inhibited 50% of the calcium flux induced by LPA alone. IC50 values were determined by fitting data to a 4-parameter logistic equation (GraphPad Prism, San Diego CA).
Turning to `CCCC1(COC(=O)NCc2c(-c3ccc(O[C@@H]4CC[C@@H](CC(=O)O)C4)c(C)n3)nnn2C)CC1` (racemic) [Example 9, (±)-Trans-2-(3-((2-methyl-6-(1-methyl-5-(((((1-propylcyclopropyl)methoxy)carbonyl)amino)methyl)-1H-1,2,3-triazol-4-yl)pyridin-3-yl)oxy)cyclopentyl)acetic Acid], the IC50 came to 111 nM. As for `Cc1nc(-c2nnn(C)c2COC(=O)N(C)CCCCF)ccc1O[C@H]1CC[C@H](CC(=O)O)C1` (racemic) [Example 64, (±)-trans-2-[3-({6-[5-({[(4-fluoro-butyl)(methyl)carbamoyl]oxy}methyl)-1-methyl-1H-1,2,3-triazol-4-yl]-2-methylpyridin-3-yl}oxy)cyclo-pentyl]acetic acid], the figure is 165 nM; as for `Cc1nc(-c2nnn(C)c2COC(=O)N(C)C2CCCC2)c(F)cc1O[C@H]1CC[C@H](CC(=O)O)C1` (racemic) [Example 69, (±)-trans-2-[3-({6-[5-({[cyclopentyl(methyl)carbamoyl]oxy}methyl)-1-methyl-1H-1,2,3-triazol-4-yl]-5-fluoro-2-methylpyridin-3-yl}oxy)cyclopentyl]acetic acid], 210 nM. The result for `Cc1noc(-c2ccc(OC3CCC(C(=O)O)C3)cn2)c1CNc1nccc(-c2ccccc2)n1` (single isomer, unassigned) [Example 46] reads 56 nM.

Turning to `Cc1noc(-c2ccc(O[C@@H]3CC[C@@H](C(=O)O)C3)cn2)c1CNc1nccc(-c2ccccn2)n1` (relative stereo) [Example 34, trans-3-((6-(3-methyl-4-(((4-(pyridin-2-yl)pyrimidin-2-yl)amino)methyl)isoxazol-5-yl)pyridin-3-yl)oxy)cyclo-pentane-1-carboxylic acid], the IC50 is 247 nM. The result for `CCCC1(COC(=O)NCc2c(-c3ccc(O[C@H]4CC[C@H](CC(=O)O)C4)c(C)n3)nnn2C)CCC1` (racemic) [Example 62, (±)-trans-2-[3-[(2-methyl-6-{1-methyl-5-[({[(1-propylcyclobutyl)methoxy]carbonyl}amino)methyl]-1H-1,2,3-triazol-4-yl}pyridin-3-yl)oxy]cyclo-pentyl]acetic acid] reads 183 nM; that for `Cc1nc(-c2nnn(C)c2NC(=O)OCC2CC2)ccc1O[C@H]1CC[C@H](CC(=O)O)C1` (racemic) [Example 83, (±)-trans-2-[3-{[6-(5-{(cyclopropylmethoxy)carbonyl]amino}-1-methyl-1H-1,2,3-triazol-4-yl)-2-methyl-pyridin-3-yl]oxy}cyclopentyl]acetic acid], 1230 nM.

On to `Cc1nc(-c2onc(C)c2COC(=O)N(C)C2CCCC2)ccc1O[C@H]1CCC[C@H]1CC(=O)O` (racemic) [Example 85, (±)-Cis-2-(2-((6-(4-(((cyclopentyl(methyl)carbamoyl)oxy)methyl)-3-methylisoxazol-5-yl)-2-methylpyridin-3-yl)oxy)cyclopentyl)acetic Acid], for which the 50% inhibitory concentration (IC50) stood at 29 nM. As for `CCC1(N(C)C(=O)OCc2c(-c3ccc(O[C@H]4CC[C@H](CC(=O)O)C4)c(C)n3)nnn2C)CC1` (racemic) [Example 58, (±)-trans-2-[3-({6-[5-({[(1-ethylcyclo-propyl)(methyl)carbamoyl]oxy}methyl)-1-methyl-1H-1,2,3-triazol-4-yl]-2-methylpyridin-3-yl}oxy)cyclo-pentyl]acetic acid], the figure is 479 nM. As for `Cc1nc(-c2nnn(C)c2COC(=O)N(C)C2CCCC2)ccc1O[C@H]1CC[C@H](CC(=O)O)C1` (racemic) [Example 56, (±)-trans-2-[3-({6-[5-({[cyclopentyl(methyl)carbamoyl]oxy}methyl)-1-methyl-1H-1,2,3-triazol-4-yl]-2-methylpyridin-3-yl}oxy)cyclopentyl]acetic acid], the figure is 89 nM.

As to `Cc1noc(-c2ccc(OC3CCC(C(=O)O)C3)cn2)c1CNc1nccc(-c2ccccc2)n1` (single isomer, unassigned) [Example 44], the IC50 came to 158 nM. The result for `Cn1nnc(-c2ccc(OC[C@@H]3CC[C@H](C(=O)O)C3)cn2)c1CNc1nccc(-c2ccccn2)n1` (relative stereo) [Example 37, cis-3-(((6-(1-methyl-5-(((4-(pyridin-2-yl)pyrimidin-2-yl)amino)methyl)-1H-1,2,3-triazol-4-yl)pyridin-3-yl)oxy)methyl)cyclopentane-1-carboxylic acid] reads 172 nM. Regarding `Cc1nc(-c2onc(C)c2COC(=O)N(C)C2CCCC2)ccc1O[C@H]1CC[C@H](C(=O)O)C1` (racemic) [Example 77, (±)-trans-3-({6-[4-({[cyclopentyl(methyl)carbamoyl]oxy}methyl)-3-methyl-1,2-oxazol-5-yl]-2-methyl-pyridin-3-yl}oxy)cyclopentane-1-carboxylic acid], the half-inhibitory concentration (IC50) came to 66 nM.

Take `Cc1nc(-c2nnn(C)c2COC(=O)N(C)CC2CCC2)ccc1OC[C@@H]1CC[C@H](C(=O)O)C1` (racemic) [Example 30, (±)-Cis-3-(((6-(5-((((cyclobutylmethyl)(methyl)carbamoyl)oxy)methyl)-1-methyl-1H-1,2,3-triazol-4-yl)-2-methylpyridin-3-yl)oxy)methyl)cyclopentane-1-carboxylic Acid]: the IC50 is 21 nM. As for `CCCCN(C)C(=O)OCc1c(-c2ccc(O[C@H]3CC[C@H](CC(=O)O)C3)c(C)n2)nnn1C` (single isomer, unassigned) [Example 5, (±)-Trans-2-(3-((6-(5-(((butyl(methyl)carbamoyl)oxy)methyl)-1-methyl-1H-1,2,3-triazol-4-yl)-2-methylpyridin-3-yl)oxy)cyclopentyl)acetic Acid], the figure is 952 nM; as for `Cc1nc(-c2cnn(C)c2COC(=O)N(C)CC2CCC2)cnc1O[C@H]1CC[C@H](C(=O)O)C1` (racemic) [Example 16, (±)-Trans-3-((5-(5-((((cyclobutylmethyl)(methyl)carbamoyl)oxy)methyl)-1-methyl-1H-pyrazol-4-yl)-3-methylpyrazin-2-yl)oxy)cyclopentanecarboxylic Acid], 202 nM. As for `CCCN(C)C(=O)OCc1c(-c2ccc(O[C@H]3CCC[C@H]3CC(=O)O)c(C)n2)nnn1C` (racemic) [Example 88, (±)-cis-2-(2-((2-methyl-6-(1-methyl-5-(((methyl(propyl)carbamoyl)oxy)methyl)-1H-1,2,3-triazol-4-yl)pyridin-3-yl)oxy)cyclopentyl)acetic acid], the figure is 425 nM; as for `Cc1nc(-c2nnn(C)c2CNc2noc(CC3CC3)n2)ccc1O[C@H]1CC[C@H](CC(=O)O)C1` (racemic) [Example 82, (±)-trans-2-[3-({6-[5-({[5-(cyclopropyl-methyl)-1,2,4-oxadiazol-3-yl]amino}methyl)-1-methyl-1H-1,2,3-triazol-4-yl]-2-methylpyridin-3-yl}oxy)cyclo-pentyl]acetic acid], 572 nM; as for `Cc1nc(-c2nnn(C)c2COC(=O)N(C)C2CCC2)ccc1O[C@H]1CC[C@H](CC(=O)O)C1` (racemic) [Example 63, (±)-trans-2-[3-({6-[5-({[cyclobutylmethyl-1H-1,2,3-triazol-4-yl]-2-(methyl)carbamoyl]oxy}methyl)-1-methylpyridin-3-yl}oxy)cyclopentyl]acetic acid], 96 nM.
